# Reference: ChEMBL document CHEMBL1152181, “Rational design of novel glycomimetics: inhibitors of concanavalin A” (Bioorg Med Chem Lett, 2008)
# Target: Concanavalin-A (Canavalia ensiformis, UniProt P02866)
# Test: Inhibition of Canavalia ensiformis concanavalin A binding to yeast mannan by ELLA
# Concanavalin-A, sequence (P02866 whole entry): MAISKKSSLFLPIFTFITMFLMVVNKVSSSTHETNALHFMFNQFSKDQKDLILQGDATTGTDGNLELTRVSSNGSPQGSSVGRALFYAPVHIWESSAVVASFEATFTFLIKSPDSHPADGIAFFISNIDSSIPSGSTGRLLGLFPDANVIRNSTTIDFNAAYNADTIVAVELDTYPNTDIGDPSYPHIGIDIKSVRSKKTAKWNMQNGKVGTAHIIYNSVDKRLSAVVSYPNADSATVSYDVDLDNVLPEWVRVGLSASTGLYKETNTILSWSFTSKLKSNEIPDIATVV
row,Structure (SMILES),IC50 [µM]
1,NNS(=O)(=O)c1cc(C(=O)O)cc(C(=O)O)c1,19
2,O=C(O)C1CCCCC1c1c2ccc(=O)c(O)c-2oc2c(O)c(O)ccc12 (configuration not stated),29
3,CO[C@H]1O[C@H](CO)[C@@H](O)[C@H](O)[C@@H]1O,350
4,Oc1cc(O)c2c(c1)OC(c1ccc(O)c(O)c1)C(O)C2c1c(O)cc(O)c2c1CC(c1ccc(O)c(O)c1)C(O)C2 (configuration not stated),479
5,NS(=O)(=O)c1ccc(/N=N/c2cccnc2O)cc1,234
6,NS(=O)(=O)c1ccc(/N=N/c2nc3nc(O)nc(O)c3[nH]2)cc1,615

# Target: Concanavalin-A (Canavalia ensiformis) (UniProt P02866)
# Sequence (P02866 whole entry): as above
# Test: Inhibition of Canavalia ensiformis concanavalin A binding to yeast mannan at 11 mM by ELLA
row,inhibition [%],Structure (SMILES)
1,49,NS(=O)(=O)c1ccc(/N=N/c2cnc(O)c(O)c2)cc1
